Measured values published in US7138361B2, “Herbicidal heterocycles” (E. I. du Pont de Nemours and Company, priority 2000, dated 2006).

Experiments:
Format in all cases: in vivo
[1] = test system: giant foxtail (Setaria faberii); assay: Test B postemergence; conditions: 13 to 15 days
Summary of the method: (§1)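 Seeds were planted and sprayed preemergence with test chemical in a non-phytotoxic solvent mixture containing surfactant; postemergence plants (2 to 18 cm, 1- to 4-leaf stage) received the same formulation. Greenhouse hold 13 to 15 days, then visual rating versus untreated controls on a 0–100 scale (0 no effect, 100 complete control).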

[2] = test system: cocklebur (Xanthium strumarium); assay: Test B postemergence; conditions: 13 to 15 days
Summary of the method: as §1

[3] = test system: pigweed (Amaranthus retroflexus); assay: Test B postemergence; conditions: 13 to 15 days
Summary of the method: as §1

[4] = test system: Surinam grass (Brachiaria decumbens); assay: Test B postemergence; conditions: 13 to 15 days
Summary of the method: as §1

[5] = test system: velvetleaf (Abutilon theophrasti); assay: Test B postemergence; conditions: 13 to 15 days
Summary of the method: as §1

[6] = test system: crabgrass (Digitaria sanguinalis); assay: Test B postemergence; conditions: 13 to 15 days
Summary of the method: as §1

[7] = test system: wheat (Triticum aestivum); assay: Test B postemergence; conditions: 13 to 15 days
Summary of the method: as §1

[8] = test system: barnyardgrass (Echinochloa crus-galli); assay: Test B postemergence; conditions: 13 to 15 days
Summary of the method: as §1

wild oat (Avena fatua) = assay: Test B postemergence; conditions: 13 to 15 days
Summary of the method: as §1

corn (Zea mays) [9] = assay: Test B postemergence; conditions: 13 to 15 days
Summary of the method: as §1

[10] = test system: morning glory (Ipomoea hederacea); assay: Test B postemergence; conditions: 13 to 15 days
Summary of the method: as §1

Sunflower [11] = assay: Test C preemergence; conditions: Rate 250 g/ha, visual evaluation after 12 to 14 days
[12] = test system: yellow nutsedge (Cyperus esculentus); assay: Test C preemergence; conditions: for Plant response rating (0 to 100), Nutsedge: Rate 250 g/ha, visual evaluation after 12 to 14 days
Summary of the method: (§2)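 Preemergence: seeds sown then treated. Postemergence: plants 2–18 cm, 1- to 4-leaf. Both with surfactant-containing solvent formulation; visual injury scored 0–100 after 12–14 d.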

[13] = test system: common ragweed (Ambrosia elatior); assay: Test C preemergence; conditions: for Plant response rating (0 to 100), Ragweed, Common: Rate 250 g/ha, visual evaluation after 12 to 14 days
Summary of the method: as §2

Nightshade = assay: Test C preemergence
[14] = test system: velvetleaf (Abutilon theophrasti); assay: Test C preemergence; conditions: for Plant response rating (0 to 100), Velvetleaf: Rate 250 g/ha, visual evaluation after 12 to 14 days
Summary of the method: as §2

[15] = test system: johnsongrass (Sorghum halepense); assay: Test C preemergence; conditions: for Plant response rating (0 to 100), Johnsongrass: Rate 250 g/ha, visual evaluation after 12 to 14 days
Summary of the method: as §2

[16] = test system: morningglory (Ipomoea hederacea); assay: Test C preemergence; conditions: for Plant response rating (0 to 100), Morningglory: Rate 250 g/ha, visual evaluation after 12 to 14 days
Summary of the method: as §2

Sunflower [17] = assay: Test C preemergence; conditions: Rate 500 g/ha, scale 0 to 100
[18] = test system: lambsquarters (Chenopodium album); assay: Test C preemergence; conditions: for Plant response rating (0 to 100), Lambsquarters: Rate 250 g/ha, visual evaluation after 12 to 14 days
Summary of the method: as §2

[19] = test system: goosegrass (Eleusine indica); assay: Test C preemergence; conditions: for Plant response rating (0 to 100), Goosegrass: Rate 250 g/ha, visual evaluation after 12 to 14 days
Summary of the method: as §2

corn (Zea mays) [20] = assay: Test C preemergence; conditions: for Plant response rating (0 to 100), Corn: Rate 250 g/ha, visual evaluation after 12 to 14 days
Summary of the method: as §2

[21] = Rate 125 g/ha, scale 0 (no effect) to 100 (complete control)
[22] = Rate 500 g/ha, scale 0 to 100, 0 is no effect, 100 is complete control
[23] = Preemergence, Rate 500 g/ha, scale 0 to 100
[24] = Rate 62 g/ha, scale 0 to 100, 0 no effect, 100 complete control
[25] = preemergence, Rate 125 g/ha, scale 0 to 100, 0 no effect, 100 complete control
[26] = Rate 125 g/ha, scale 0 to 100, 0 no effect, 100 complete control

Structure (SMILES): O=C1C(n2ccc(C3CCCCC3)n2)SCN1c1cccc(C(F)(F)F)c1 (centres unmarked) [Compound 52]
- Plant response rating, Foxtail, Giant [1, 21]: 0
- Plant response rating, Foxtail, Giant [1, 22]: 0
- Plant response rating, Cocklebur [2, 21]: 0
- Plant response rating, Cocklebur [2, 22]: 0
- Plant response rating, Pigweed [3, 21]: 0
- Plant response rating, Pigweed [3, 22]: 0
- Plant response rating, Surinam grass [4, 21]: 0
- Plant response rating, Surinam grass [4, 22]: 0
- Plant response rating, Velvetleaf [5, 21]: 0
- Plant response rating, Velvetleaf [5, 22]: 0
- Plant response rating, Crabgrass [6, 21]: 0
- Plant response rating, Crabgrass [6, 22]: 0
- Plant response rating, Wheat [7, 21]: 0
- Plant response rating, Wheat [7, 22]: 0
- Plant response rating, Barnyardgrass [8, 21]: 0
- Plant response rating, Barnyardgrass [8, 22]: 0
- Plant response rating, Wild Oat (wild oat (Avena fatua); [21]): 0
- Plant response rating, Wild Oat (wild oat (Avena fatua); [22]): 0
- Plant response rating, Corn (corn (Zea mays) [9]; [21]): 20
- Plant response rating, Corn (corn (Zea mays) [9]; [22]): 20
- Plant response rating, Morningglory [10, 21]: 0
- Plant response rating, Morningglory [10, 22]: 0
- Plant response rating (0 to 100), Sunflower (Sunflower [11]): 0
- Plant response rating, Nutsedge [12, 23]: 40
- Plant response rating, Nutsedge [12, 24]: 0
- Plant response rating (0 to 100), Nutsedge ([12]; preemergence): 20
- Plant response rating, Nutsedge [12, 25]: 0
- Plant response rating, Ragweed, Common [13, 23]: 50
- Plant response rating (0 to 100), Ragweed, Common ([13]; preemergence): 40
- Plant response rating, Ragweed, Common [13, 25]: 0
- Plant response rating, Nightshade (Nightshade; [24]): 30
- Plant response rating, Nightshade (Nightshade; [26]): 30
- Plant response rating, Nightshade (Nightshade; Rate 500 g/ha, scale 0 to 100): 50
- Plant response rating, Velvetleaf [14, 23]: 0
- Plant response rating (0 to 100), Velvetleaf ([14]; preemergence): 0
- Plant response rating, Velvetleaf [14, 25]: 0
- Plant response rating, Johnsongrass [15, 23]: 100
- Plant response rating, Johnsongrass [15, 24]: 0
- Plant response rating (0 to 100), Johnsongrass ([15]; preemergence): 90
- Plant response rating, Johnsongrass [15, 25]: 40
- Plant response rating, Morningglory [16, 23]: 30
- Plant response rating (0 to 100), Morningglory ([16]; preemergence): 0
- Plant response rating, Morningglory [16, 25]: 0
- Plant response rating, Sunflower (Sunflower [17]): 50
- Plant response rating, Lambsquarters [18, 23]: 100
- Plant response rating, Lambsquarters [18, 24]: 0
- Plant response rating (0 to 100), Lambsquarters ([18]; preemergence): 100
- Plant response rating, Lambsquarters [18, 25]: 80
- Plant response rating, Goosegrass [19, 23]: 100
- Plant response rating, Goosegrass [19, 24]: 90
- Plant response rating (0 to 100), Goosegrass ([19]; preemergence): 100
- Plant response rating, Goosegrass [19, 25]: 90
- Plant response rating, Corn (corn (Zea mays) [20]; [23]): 40
- Plant response rating, Corn (corn (Zea mays) [20]; [24]): 0
- Plant response rating (0 to 100), Corn (corn (Zea mays) [20]; preemergence): 20
- Plant response rating, Corn (corn (Zea mays) [20]; [25]): 0

Structure (SMILES): CC(C)(C)c1ccn(C2CCN(c3ccc(Cl)c(Br)c3)C2=O)n1 (centres unmarked) [Compound 56]
- Plant response rating, Foxtail, Giant [1, 21]: 0
- Plant response rating, Foxtail, Giant [1, 22]: 0
- Plant response rating, Cocklebur [2, 21]: 0
- Plant response rating, Cocklebur [2, 22]: 0
- Plant response rating, Pigweed [3, 21]: 90
- Plant response rating, Pigweed [3, 22]: 90
- Plant response rating, Surinam grass [4, 21]: 0
- Plant response rating, Surinam grass [4, 22]: 0
- Plant response rating, Velvetleaf [5, 21]: 0
- Plant response rating, Velvetleaf [5, 22]: 0
- Plant response rating, Crabgrass [6, 21]: 0
- Plant response rating, Crabgrass [6, 22]: 0
- Plant response rating, Wheat [7, 21]: 0
- Plant response rating, Wheat [7, 22]: 0
- Plant response rating, Barnyardgrass [8, 21]: 0
- Plant response rating, Barnyardgrass [8, 22]: 0
- Plant response rating, Wild Oat (wild oat (Avena fatua); [21]): 0
- Plant response rating, Wild Oat (wild oat (Avena fatua); [22]): 0
- Plant response rating, Corn (corn (Zea mays) [9]; [21]): 0
- Plant response rating, Corn (corn (Zea mays) [9]; [22]): 0
- Plant response rating, Morningglory [10, 21]: 0
- Plant response rating, Morningglory [10, 22]: 10
- Plant response rating (0 to 100), Sunflower (Sunflower [11]): 0
- Plant response rating, Nutsedge [12, 23]: 0
- Plant response rating, Nutsedge [12, 24]: 0
- Plant response rating (0 to 100), Nutsedge ([12]; preemergence): 0
- Plant response rating, Nutsedge [12, 25]: 0
- Plant response rating, Ragweed, Common [13, 23]: 20
- Plant response rating (0 to 100), Ragweed, Common ([13]; preemergence): 0
- Plant response rating, Ragweed, Common [13, 25]: 0
- Plant response rating, Nightshade (Nightshade; [24]): 0
- Plant response rating, Nightshade (Nightshade; [26]): 0
- Plant response rating, Nightshade (Nightshade; Rate 500 g/ha, scale 0 to 100): 20
- Plant response rating, Velvetleaf [14, 23]: 20
- Plant response rating (0 to 100), Velvetleaf ([14]; preemergence): 0
- Plant response rating, Velvetleaf [14, 25]: 0
- Plant response rating, Johnsongrass [15, 23]: 0
- Plant response rating, Johnsongrass [15, 24]: 0
- Plant response rating (0 to 100), Johnsongrass ([15]; preemergence): 0
- Plant response rating, Johnsongrass [15, 25]: 0
- Plant response rating, Morningglory [16, 23]: 0
- Plant response rating, Morningglory [16, 24]: 0
- Plant response rating (0 to 100), Morningglory ([16]; preemergence): 0
- Plant response rating, Morningglory [16, 25]: 0
- Plant response rating, Sunflower (Sunflower [17]): 0
- Plant response rating, Lambsquarters [18, 23]: 100
- Plant response rating, Lambsquarters [18, 24]: 100
- Plant response rating (0 to 100), Lambsquarters ([18]; preemergence): 100
- Plant response rating, Lambsquarters [18, 25]: 100
- Plant response rating, Goosegrass [19, 23]: 100
- Plant response rating, Goosegrass [19, 24]: 60
- Plant response rating (0 to 100), Goosegrass ([19]; preemergence): 90
- Plant response rating, Goosegrass [19, 25]: 80
- Plant response rating, Corn (corn (Zea mays) [20]; [23]): 0
- Plant response rating, Corn (corn (Zea mays) [20]; [24]): 0
- Plant response rating (0 to 100), Corn (corn (Zea mays) [20]; preemergence): 0
- Plant response rating, Corn (corn (Zea mays) [20]; [25]): 0
